Test results taken from article PMC6100724, “Proteome‐wide analysis of phospho‐regulated PDZ domain interactions” (Molecular Systems Biology, 2018).
One block for each sequence: values may come before it.

Experiments:
Assay in all cases: Phosphomimetic ProP-PD selection with NGS
Scribble PDZ1 = target: T1, Scribble PDZ1 (Homo sapiens, UniProt Q14160); type: binding; details: bait Scribble PDZ1; mean of selections 1-3
T1 construct: human Scribble PDZ1 aa 719–829 in; made in house; host or cells: E. coli BL21 Gold (DE3)
Experimental: (§1) Phage selections were carried out for four rounds following a protocol by Huang and Sidhu (Huang & Sidhu, 2011) with minor modifications. Non‐specific binding phage was removed by pre‐selections against immobilized GST throughout the selection. The selections against the (pre‐)phosphorylated wild‐type library were performed in 50 mM HEPES (pH 7.4) and 150 mM NaCl (HBS) following the same procedure after pre‐phosphorylation of the library.
(§2) • Immobilize proteins (15 μg in 100 μl PBS) in a 96‐well MaxiSorp microtiter plate (NUNC) overnight at 4°C. • Start a 2YT culture of E. coli Omnimax supplemented with 100 μg/ml tetracycline to retain the F pilus epitope. • Block the wells with 200 μl 0.5% BSA in PBS for 2 h at 4°C. • Precipitate naïve phage library (10^11 cfu per selection) or amplified phage pool from the previous round of selection by adding one‐fifth the volume of PEG/NaCl. • Incubate on ice for 10 min, and pellet precipitated phage by centrifugation at 5,300 g for 15 min. Resuspend the phage pellet in 100 μl PBS per selection. • Add 100 μl of phage solution to the GST‐coated pre‐selection wells and incubate for 1 h. • Transfer the phage solution to the immobilized target proteins and allow it to bind for 2 h at 8°C. • Wash the plate four times with 200 μl cold wash buffer (PBS, 0.05% Tween‐20). • Elute bound phage by incubation with 100 μl log phase (0.6–0.8 OD600) E. coli Omnimax for 30 min at 37°C with shaking (200 RPM). • Add 10^12 cfu/ml M13K07 helper phage for hyperinfection of the bacteria and incubate as above for 45 min. • Transfer the bacterial culture to 10 ml 2YT supplemented with 50 μg/ml carbenicillin, 25 μg/ml kanamycin, and 300 μM IPTG and incubate overnight at 37°C while shaking. • Perform phage pool ELISA to monitor the progress of the selection as described previously (Huang & Sidhu, 2011).
(§3) The naïve library and the enriched phage pools of the third day of selection were amplified and barcoded by PCR and analyzed by NGS as described elsewhere (McLaughlin & Sidhu, 2013; Ivarsson et al, 2014). The reads were demultiplexed using the barcode sequences and filtered by discarding sequences with a Phred quality score under 30. Sequences were mapped to the original library using Bowtie (Langmead et al, 2009) with two mismatches between reads and library sequence. Nucleotide mutations leading to amino acid substitutions were subsequently removed. Cutoff values of NGS counts were assigned for each pool. PWMs were generated based on the remaining peptides (aligned on the C‐termini) using WebLogo (Crooks et al, 2004).
(§4) However, there was no significant correlation of the actual read counts (selection “strength”) and the initial representation in the library, reflecting the strong selection during phage display (wt+mimetic: P‐value: 0.49, ρ = −0.08, mimetic only: P‐value: 0.069, ρ = −0.2, wt only: P‐value: 0.12, ρ = 0.17). Consequently, the amount of reads for each binder after phage display is not a function of the amount of input reads in the naïve library and no modeling based on the input library frequencies to score the interactions is necessary. To allow for comparison between replicate selections, we used the fraction of NGS reads within a certain set, instead of the absolute number of NGS reads, as the absolute numbers differ between different NGS batches.

Scribble PDZ3 = type: binding, human; details: bait Scribble PDZ3
Experimental: as §1, §2, §3, §4

DLG1 PDZ2 = target: T2, DLG1 PDZ2 (Homo sapiens, UniProt Q12959); type: binding; details: mean of selections 1-3, bait DLG1 PDZ2
T2 construct: human DLG1 PDZ2 aa 311–407 in a modified pRSET vector 40; made in house; host or cells: E. coli BL21 Gold (DE3)
Experimental: as §1, §2, §3, §4

[1] = mean of selections 1-3, phosphomimetic peptide
[2] = mean of selections 1-3, wild type peptide

T1 sequence (Q14160 719-829): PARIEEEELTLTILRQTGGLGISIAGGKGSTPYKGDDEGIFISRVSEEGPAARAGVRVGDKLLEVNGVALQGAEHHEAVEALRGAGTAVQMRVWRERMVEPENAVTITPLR
T2 sequence (Q12959 311-407): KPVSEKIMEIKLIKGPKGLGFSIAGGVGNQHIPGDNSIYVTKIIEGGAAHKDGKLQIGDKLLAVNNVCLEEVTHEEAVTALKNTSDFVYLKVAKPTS

- Mean fraction #NGS counts wt peptide / total counts selection (Scribble PDZ1): 0.000274
Sequence: DKESFLTWL
- Mean fraction #NGS counts wt peptide / total counts selection (Scribble PDZ3; mean over selections 1-3): 0.01024

- Mean fraction #NGS counts mimetic peptide / total count selection (Scribble PDZ1): 0.0001138
Sequence: EPTVHVTEL
- Mean fraction #NGS counts mimetic peptide / total count selection (Scribble PDZ3; mean over selections 1-3): 1.586e-5

- Mean fraction #NGS counts mimetic peptide / total count selection (DLG1 PDZ2): 6.06e-5
Sequence: GLMKRRSEV

- Mean fraction #NGS counts wt peptide / total counts selection (DLG1 PDZ2): 0
Sequence: GLMKRRSSV

- Mean fraction #NGS counts wt peptide / total counts selection (DLG1 PDZ2; wild type peptide): 0.003121
Sequence: GSGGRQSVV

- Mean fraction #NGS counts wt peptide / total counts selection (Scribble PDZ1): 0
Sequence: HEKVFTSAL
- Mean fraction #NGS counts wt peptide / total counts selection (Scribble PDZ3; mean over selections 1-3): 0.0001136

- Mean fraction #NGS counts mimetic peptide / total count selection (DLG1 PDZ2): 0
Sequence: HFESLESEV

- Mean fraction #NGS counts wt peptide / total counts selection (DLG1 PDZ2): 5.084e-5
Sequence: HFSSLESEV

- Mean fraction #NGS counts mimetic peptide / total count selection (DLG1 PDZ2): 0.001455
Sequence: IEFTQTEQF

- Mean fraction #NGS counts mimetic peptide / total count selection (Scribble PDZ1): 4.38e-5
Sequence: IEWLAFSVL

- Mean fraction #NGS counts wt peptide / total counts selection (DLG1 PDZ2): 6.749e-6
Sequence: ISFTQTSQF

- Mean fraction #NGS counts mimetic peptide / total count selection (DLG1 PDZ2): 0
- Mean fraction #NGS counts wt peptide / total counts selection (DLG1 PDZ2): 1.436e-5
Sequence: ISYRRESAI
- Mean fraction #NGS counts wt peptide / total counts selection (Scribble PDZ3; mean over selections 1-3): 0.0002548

- Mean fraction #NGS counts mimetic peptide / total count selection (DLG1 PDZ2): 0
Sequence: KLSEIESDV
- Mean fraction #NGS counts mimetic peptide / total count selection (Scribble PDZ3; mean over selections 1-3): 6.057e-6

- Mean fraction #NGS counts mimetic peptide / total count selection (Scribble PDZ1): 2.8202e-5
Sequence: LAPNIIEQL

- Mean fraction #NGS counts wt peptide / total counts selection (Scribble PDZ1): 0.000119
Sequence: LAPNIISQL

- Mean fraction #NGS counts mimetic peptide / total count selection (DLG1 PDZ2): 0
- Mean fraction #NGS counts wt peptide / total counts selection (DLG1 PDZ2): 0.0003449
Sequence: LKSGRDSTV

- Mean fraction #NGS counts mimetic peptide / total count selection (DLG1 PDZ2): 7.62e-5
Sequence: LRLQSETEV

- Mean fraction #NGS counts wt peptide / total counts selection (DLG1 PDZ2): 3.877e-6
Sequence: LRLQSETSV

The remaining lines, values behind:

Sequence: DKEEFLTWL
- Mean fraction #NGS counts mimetic peptide / total count selection (Scribble PDZ1): 0
- Mean fraction #NGS counts mimetic peptide / total count selection (Scribble PDZ3; mean over selections 1-3): 0.0001294

Sequence: DSEILETVV
- Mean fraction #NGS counts mimetic peptide / total count selection (DLG1 PDZ2): 0

Sequence: DSSILSTVV
- Mean fraction #NGS counts wt peptide / total counts selection (DLG1 PDZ2): 0.0001102

Sequence: EIDLWETAL
- Mean fraction #NGS counts mimetic peptide / total count selection (Scribble PDZ3; mean over selections 1-3): 0.0004512

Sequence: ERLEYEETL
- Mean fraction #NGS counts mimetic peptide / total count selection (Scribble PDZ3; mean over selections 1-3): 0

Sequence: ERLEYETEL
- Mean fraction #NGS counts mimetic peptide / total count selection (Scribble PDZ3; [1]): 3.548e-5

Sequence: ERLEYETTL
- Mean fraction #NGS counts wt peptide / total counts selection (Scribble PDZ3; [2]): 0.0004529
- Mean fraction #NGS counts wt peptide / total counts selection (Scribble PDZ3; mean over selections 1-3): 0.0004529

Sequence: GEGGRQSVV
- Mean fraction #NGS counts mimetic peptide / total count selection (DLG1 PDZ2; phosphomimetic peptide): 9.343e-5

Sequence: HEIKQETAV
- Mean fraction #NGS counts mimetic peptide / total count selection (DLG1 PDZ2): 0.0002182

Sequence: HEIKQSTAV
- Mean fraction #NGS counts mimetic peptide / total count selection (DLG1 PDZ2; phosphomimetic peptide): 0

Sequence: HEKVFESAL
- Mean fraction #NGS counts mimetic peptide / total count selection (Scribble PDZ1): 0.0004614
- Mean fraction #NGS counts mimetic peptide / total count selection (Scribble PDZ3; mean over selections 1-3): 0.07851

Sequence: IPLTRETTF
- Mean fraction #NGS counts mimetic peptide / total count selection (Scribble PDZ3; mean over selections 1-3): 0.0004175

Sequence: IPLTRTTTF
- Mean fraction #NGS counts wt peptide / total counts selection (Scribble PDZ3; mean over selections 1-3): 0

Sequence: ISWLAFSVL
- Mean fraction #NGS counts wt peptide / total counts selection (Scribble PDZ1): 0

Sequence: ISYRREEAI
- Mean fraction #NGS counts mimetic peptide / total count selection (Scribble PDZ3; mean over selections 1-3): 0

Sequence: KEEPFLTWL
- Mean fraction #NGS counts mimetic peptide / total count selection (Scribble PDZ3; mean over selections 1-3): 0.001054

Sequence: KKRMVEEPL
- Mean fraction #NGS counts mimetic peptide / total count selection (Scribble PDZ3; mean over selections 1-3): 0

Sequence: KKRMVESPL
- Mean fraction #NGS counts wt peptide / total counts selection (Scribble PDZ3; mean over selections 1-3): 0.000138

Sequence: KSEPFLTWL
- Mean fraction #NGS counts wt peptide / total counts selection (Scribble PDZ3; mean over selections 1-3): 0.002017

Sequence: KYVDAETEL
- Mean fraction #NGS counts mimetic peptide / total count selection (Scribble PDZ3; [1]): 0.0004194

Sequence: KYVDAETSL
- Mean fraction #NGS counts wt peptide / total counts selection (Scribble PDZ3; [2]): 0.0001259

Sequence: LSIEKEEKL
- Mean fraction #NGS counts mimetic peptide / total count selection (Scribble PDZ3; mean over selections 1-3): 3.894e-6

Sequence: LSIEKETKL
- Mean fraction #NGS counts wt peptide / total counts selection (Scribble PDZ3; mean over selections 1-3): 0.01518

Sequence: MKRLTETRL
- Mean fraction #NGS counts mimetic peptide / total count selection (Scribble PDZ1): 0.01768
- Mean fraction #NGS counts mimetic peptide / total count selection (Scribble PDZ3; mean over selections 1-3): 0.001041
